Source: patent US11242337B2, “Compounds useful for treating gastrointestinal tract disorders” (Ardelyx, Inc., priority 2017, dated 2022)

How the values were obtained:
[1] = test system: human duodenum monolayer culture; assay: Sustained inhibition of apical acid secretion in human organoid monolayer cell cultures (duodenum); type: cell-based; conditions: Homo sapiens
Outline: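 Duodenum organoid cells were plated on Transwells, differentiated with EGF/noggin/A83-01 from day 3, and dosed apically on day 6 with compound at 1 μM final (DMSO vehicle control), in duplicate wells, at 37° C, 5% CO2. Apical media pH was measured by electrode on day 8.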

[2] = target: T1, NHE3 (Homo sapiens, UniProt P48764); assay: Cell-based assay of NHE-3 activity (pre-incubation inhibition), human; conditions: human Preincubation
T1 construct: expressed in transfected cells
T1 sequence (P48764 26-834): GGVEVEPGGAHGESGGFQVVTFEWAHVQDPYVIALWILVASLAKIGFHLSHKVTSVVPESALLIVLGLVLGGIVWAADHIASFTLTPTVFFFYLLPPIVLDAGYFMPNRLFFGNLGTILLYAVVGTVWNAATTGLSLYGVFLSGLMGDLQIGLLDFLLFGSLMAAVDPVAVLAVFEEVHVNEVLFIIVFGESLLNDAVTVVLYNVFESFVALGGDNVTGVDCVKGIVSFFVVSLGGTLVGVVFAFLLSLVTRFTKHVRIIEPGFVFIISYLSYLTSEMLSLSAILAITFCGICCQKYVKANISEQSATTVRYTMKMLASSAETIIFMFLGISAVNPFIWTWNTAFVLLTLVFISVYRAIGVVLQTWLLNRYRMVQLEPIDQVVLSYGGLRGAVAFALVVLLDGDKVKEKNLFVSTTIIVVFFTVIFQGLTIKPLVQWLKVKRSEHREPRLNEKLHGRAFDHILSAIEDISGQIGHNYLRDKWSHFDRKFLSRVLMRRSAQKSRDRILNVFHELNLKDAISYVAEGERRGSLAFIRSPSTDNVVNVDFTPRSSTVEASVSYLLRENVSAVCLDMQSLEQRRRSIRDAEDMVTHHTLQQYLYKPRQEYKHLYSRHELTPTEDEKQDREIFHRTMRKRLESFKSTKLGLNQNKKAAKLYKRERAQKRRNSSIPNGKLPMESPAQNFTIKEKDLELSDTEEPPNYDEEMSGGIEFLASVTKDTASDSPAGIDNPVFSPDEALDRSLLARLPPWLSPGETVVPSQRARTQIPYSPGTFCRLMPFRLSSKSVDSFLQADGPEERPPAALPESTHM
T1 sequence (Q99653 2-195 partner limits assumed): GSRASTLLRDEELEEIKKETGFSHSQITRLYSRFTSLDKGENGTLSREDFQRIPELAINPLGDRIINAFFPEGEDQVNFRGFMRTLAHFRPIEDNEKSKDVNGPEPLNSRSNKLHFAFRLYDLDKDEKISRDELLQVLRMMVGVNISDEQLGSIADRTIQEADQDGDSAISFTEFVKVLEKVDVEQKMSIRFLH
Outline: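 Activity read as initial rate of BCECF fluorescence ratio change per minute (ex 439/505, em 538 nm) following NH4Cl prepulse acid loading. Compound (0–30 μM) present during 10 min Na+-free acidification at room temperature; cells were PS120 fibroblasts stably co-expressing human NHE3 and NHERF2.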

- % inhibition [2]: C (>70%)
- pIC50 ([2]; 0-30 μM test compound): C (NHE3 pIC50 > 7)
SMILES: Cc1cc(Cl)cc2c1C[C@H](N1CCNCC1)[C@H]2Oc1ccc(S(=O)(=O)NCCOCCOCCNC(=O)NCCCCNC(=O)NCCOCCOCCNS(=O)(=O)c2ccc(O[C@H]3c4cc(Cl)cc(C)c4C[C@@H]3N3CCNCC3)c(F)c2)cc1F [Example 36, 3-[2-(2-[2-[(4-[[(1S,2S)-6-Chloro-4-methyl-2-(piperazin-1-yl)-2,3-dihydro-1H-inden-1-yl]oxy]-3-fluorobenzene)sulfonamido]ethoxy]ethoxy)ethyl]-1-[4-([[2-(2-[2-[(4-[[(1S,2S)-6-chloro-4-methyl-2-(piperazin-1-yl)-2,3-dihydro-1H-inden-1-yl]oxy]-3-fluorobenzene)sulfonamido]ethoxy]ethoxy)ethyl]carbamoyl]amino)butyl]urea; bis(trifluoroacetic acid)]
- inhibition at 1 µM [1]: > 70%
